According to patent US7825256B2, “Inducible nitric oxide synthase dimerization inhibitors” (Kalypsys, Inc., priority 2004, dated 2010):
Where a name gives a salt, the structure may show the parent alone.

Target: T1, hiNOS (Homo sapiens, UniProt P35228)
T1 construct: expressed in transfected cells; host or cells: HEK293
Assay: DAN assay, hiNOS expressed in transiently transfected HEK293 cells
Assay type: cell-based
Settings: HEK293 cells transiently transfected with hiNOS
From the text: The source of nitric oxide synthase (NOS) enzyme can be generated in several ways including induction of endogenous iNOS using cytokines and/or lipopolysaccharide (LPS) in various cell types known in the art. Alternatively, the gene encoding the enzyme can be cloned and the enzyme can be generated in cells via heterologous expression from a transient or stable expression plasmid with suitable features for protein expression as are known in the art. Enzymatic activity (nitric oxide production) is calcium independent for iNOS, while the constitutive NOS isoforms, nNOS and eNOS, become active with the addition of various cofactors added to cellular media or extract as are well known in the art. Enzymes specified in Table 1 were expressed in HEK293 cells transiently transfected with the indicated NOS isoform.
A major metabolic pathway for nitric oxide is to nitrate and nitrite, which are stable metabolites within tissue culture, tissue, plasma, and urine (S Moncada, A Higgs, N Eng J Med 329, 2002 (1993)).
The level of nitrate or nitrite in the specimen can be quantified by any method known in the art which provides adequate sensitivity and reproducibility. A variety of protocols have also been described for detecting and quantifying nitrite and nitrate levels in biological fluids by ion chromatography (e.g., S A Everett et al., J. Chromatogr. 706, 437 (1995); J M Monaghan et al., J. Chromatogr. 770, 143 (1997)), high-performance liquid chromatography (e.g., M Kelm et al., Cardiovasc. Res. 41, 765 (1999)), and capillary electrophoresis (M A Friedberg et al., J. Chromatogr. 781, 491 (1997)). For example, 2,3-diaminonaphthalene reacts with the nitrosonium cation that forms spontaneously from NO to form the fluorescent product […]. Using 2,3-diaminonaphthalene (“DAN”), researchers have developed a rapid, quantitative fluorometric assay that can detect from 10 nM to 10 μM nitrite and is compatible with a multi-well microplate format. […] DAN reacts with nitrite ion and gives fluorescent […] (M C Carré et al., Analysis 27, 835-838 (1999)). Table 1 provides the test results of various compounds of the subject invention using the DAN assay.
A specimen can be processed prior to determination of nitrate or nitrite as required by the quantification method, or in order to improve the results, or for the convenience of the investigator. For example, processing can involve centrifuging, filtering, or homogenizing the sample. If the sample is whole blood, the blood can be centrifuged to remove cells and the nitrate or nitrite assay performed on the plasma or serum fraction. If the sample is tissue, the tissue can be dispersed or homogenized by any method known in the art prior to determination of nitrate or nitrite. It may be preferable to remove cells and other debris by centrifugation or another method and to determine the nitrate or nitrite level using only the fluid portion of the sample, or the extracellular fluid fraction of the sample. The sample can also be preserved for later determination, for example by freezing of urine or plasma samples. When appropriate, additives may be introduced into the specimen to preserve or improve its characteristics for use in the nitrate or nitrite assay.
The “level” of nitrate, nitrite, or other NO-related product usually refers to the concentration (in moles per liter, micromoles per liter, or other suitable units) of nitrate or nitrite in the specimen, or in the fluid portion of the specimen. However, other units of measure can also be used to express the level of nitrate or nitrite. For example, an absolute amount (in micrograms, milligrams, nanomoles, moles, or other suitable units) can be used, particularly if the amount refers back to a constant amount (e.g., grams, kilograms, milliliters, liters, or other suitable units) of the specimens under consideration. A number of commercially available kits can be used.

EC50 [nM]	SMILES
< 1000	CCOC(=O)CN(CCCNCc1ccc2c(c1)OCO2)c1nc(-n2ccnc2)ns1 [Example 53, [{3-[(Benzo[1,3]dioxol-5-ylmethyl)-amino]-propyl}-(3-imidazol-1-yl-[1,2,4]thiadiazol-5-yl)-amino]-acetic acid ethyl ester]
> 50000	CN(CCCNCc1ccncc1)c1nc(-n2ccnc2)ns1 [Example 21, N-(3-Imidazol-1-yl-[1,2,4]thiadiazol-5-yl)-N-methyl-N′-pyridin-4-ylmethyl-propane-1,3-diamine]
< 1000	NC(=O)CN(CCCNCc1ccc2c(c1)OCO2)c1nc(-n2ccnc2)ns1 [Example 54, 2-[{3-[(Benzo[1,3]dioxol-5-ylmethyl)-amino]-propyl}-(3-imidazol-1-yl-[1,2,4]thiadiazol-5-yl)-amino]-acetamide]
< 1000	N#CCN(CCCNCc1ccc2c(c1)OCO2)c1nc(-n2ccnc2)ns1 [Example 60, [{3-[(Benzo[1,3]dioxol-5-ylmethyl)-amino]-propyl}-(3-imidazol-1-yl-[1,2,4]thiadiazol-5-yl)-amino]-acetonitrile]
< 1000	CN(CCCN(C)c1nc(-n2ccnc2)ns1)Cc1ccc2c(c1)OCO2 [Example 79, N-Benzo[1,3]dioxol-5-ylmethyl-N′-(3-imidazol-1-yl-[1,2,4]thiadiazol-5-yl)-N,N′-dimethyl-propane-1,3-diamine]
> 50000	Cc1cc(CNC(=O)C2CCCN2Cc2ccc(C(F)(F)F)cc2)nc(-n2ccnc2)n1 (stereo not drawn) [Example 107, 1-(4-Trifluoromethyl-benzyl)-pyrrolidine-2-carboxylic acid (2-imidazol-1-yl-6-methyl-pyrimidin-4-ylmethyl)-amide]
< 50000	CN(CCCNCc1ccc(Cl)cc1)c1nc(-n2ccnc2)ns1 [Example 7, N′-(4-Chloro-benzyl)-N-(3-imidazol-1-yl-[1,2,4]thiadiazol-5-yl)-N-methyl-propane-1,3-diamine]
> 50000	Cc1cc(CNC(=O)C2CCCN2Cc2ccc(F)cc2)nc(-n2ccnc2)n1 (stereo not drawn) [Example 111, 1-(4-Fluoro-benzyl)-pyrrolidine-2-carboxylic acid (2-imidazol-1-yl-6-methyl-pyrimidin-4-ylmethyl)-amide]
< 1000	O=C(NCCc1ccc2c(c1)OCO2)[C@@H]1C[C@@H](O)CN1c1nc(-n2ccnc2)ns1 [Example 27, (2S,4R)-4-Hydroxy-1-(3-imidazol-1-yl-[1,2,4]thiadiazol-5-yl)-pyrrolidine-2-carboxylic acid (2-benzo[1,3]dioxol-5-yl-ethyl)amide]
> 50000	COc1cc(CN2CCCC2C(=O)NCc2cc(C)nc(-n3ccnc3)n2)cc(OC)c1 (stereo not drawn) [Example 110, 1-(3,5-Dimethoxy-benzyl)-pyrrolidine-2-carboxylic acid (2-imidazol-1-yl-6-methyl-pyrimidin-4-ylmethyl)-amide]
< 1000	CN(CC1CCN(Cc2ccc3c(c2)OCO3)C1)c1nc(-n2ccnc2)ns1 (stereo not drawn) [Example 46, (1-Benzo[1,3]dioxol-5-ylmethyl-pyrrolidin-3-ylmethyl)-(3-imidazol-1-yl-[1,2,4]thiadiazol-5-yl)-methyl-amine]
< 1000	CNC(=O)C(CCCNCc1ccc2c(c1)OCO2)c1nc(-n2ccnc2)ns1 (stereo not drawn) [Example 40, 5-[(Benzo[1,3]dioxol-5-ylmethyl)-amino]-2-(3-imidazol-1-yl-[1,2,4]thiadiazol-5-yl)-pentanoic acid methylamide]
< 1000	O=C(NCCc1ccc2c(c1)OCO2)[C@H]1Cc2ccccc2CN1c1nc(-n2ccnc2)ns1 [Example 129, (R)-2-(3-Imidazol-1-yl-[1,2,4]thiadiazol-5-yl)-1,2,3,4-tetrahydro-isoquinoline-3-carboxylic acid (2-benzo[1,3]dioxol-5-yl-ethyl)-amide]
< 1000	c1cn(-c2nsc(N(CCCNCc3ccc4c(c3)OCO4)Cc3ccc4occc4c3)n2)cn1 [Example 101, N′-Benzo[1,3]dioxol-5-ylmethyl-N-benzofuran-5-ylmethyl-N-(3-imidazol-1-yl-[1,2,4]thiadiazol-5-yl)-propane-1,3-diamine]
< 1000	CN(CCNCCc1ccc2c(c1)OCO2)c1nc(-n2ccnc2)ns1 [Example 127, N′-(2-Benzo[1,3]dioxol-5-yl-ethyl)-N-(3-imidazol-1-yl-[1,2,4]thiadiazol-5-yl)-N-methyl-ethane-1,2-diamine]
< 50000	Cc1cc(C(C)(C)/C=C/C(=O)NCc2ccc3c(c2)OCO3)nc(-n2ccnc2)n1 [Example 74, (E)-4-(2-(1H-Imidazol-1-yl)-6-methylpyrimidin-4-yl)-N-(benzo[d][1,3]dioxol-5-ylmethyl)-4-methylpent-2-enamide]
< 1000	CN(CCCN(Cc1ccc(O)cc1)Cc1ccc(O)cc1)c1nc(-n2ccnc2)ns1 [Example 36, N-(3-Imidazol-1-yl-[1,2,4]thiadiazol-5-yl)-N′,N′-bis-(4-hydroxy-benzyl)-N-methyl-propane-1,3-diamine]
< 1000	CNC(=O)CC(NCCNCc1ccc2c(c1)OCO2)c1cc(C)nc(-n2ccnc2)n1 (stereo not drawn) [Example 136, Benzo[1,3]dioxol-5-ylmethyl-{2-[1-(2-imidazol-1-yl-6-methyl-pyrimidin-4-yl)-2-methylcarbamoyl-ethylamino]-ethyl}-ammonium trifluoroacetate]
< 1000	Cc1cc(C2CCC(=O)N2CCNCc2ccc3c(c2)OCCO3)nc(-n2ccnc2)n1 (stereo not drawn) [Example 139, 1-{2-[(2,3-Dihydro-benzo[1,4]dioxin-6-ylmethyl)-amino]-ethyl}-5-(2-imidazol-1-yl-6-methyl-pyrimidin-4-yl)-pyrrolidin-2-one hydrochloride]
< 1000	Cc1cc(C(C)(C)CCCNCc2ccc3c(c2)OCO3)nc(-n2ccnc2)n1 [Example 76, 4-(2-(1H-Imidazol-1-yl)-6-methylpyrimidin-4-yl)-N-(benzo[d][1,3]dioxol-5-ylmethyl)-4-methylpentan-1-amine]
< 1000	CC(NCCOCc1ccc2c(c1)OCO2)c1nc(-n2ccnc2)ns1 (stereo not drawn) [Example 65, [2-(Benzo[1,3]dioxol-5-ylmethoxy)-ethyl]-[1-(3-imidazol-1-yl-[1,2,4]thiadiazol-5-yl)-ethyl]-amine]
< 1000	O=C(NCCc1ccc2c(c1)OCCO2)[C@H]1CCCN1c1nc(-n2ccnc2)ns1 [Example 120, 1-(3-Imidazol-1-yl-[1,2,4]thiadiazol-5-yl)-pyrrolidine-2-carboxylic acid [2-(2,3-dihydro-benzo[1,4]dioxin-6-yl)-ethyl]-amide]
< 1000	CCOC(=O)C1CCC(C(=O)NCCc2ccc3c(c2)OCO3)N1c1nc(-n2ccnc2)ns1 (racemic) [Example 94, 5-(2-Benzo[1,3]dioxol-5-yl-ethylcarbamoyl)-1-(3-imidazol-1-yl-[1,2,4]thiadiazol-5-yl)-pyrrolidine-2-carboxylic acid ethyl ester]
< 50000	Cc1cc(C(C)(C)C(=O)NCCCc2ccc3c(c2)OCO3)nc(-n2ccnc2)n1 [Example 72, 2-(2-(1H-imidazol-1-yl)-6-methylpyrimidin-4-yl)-N-(3-(benzo[d][1,3]dioxol-5-yl)propyl)-2-methylpropanamide]
< 1000	CC(C)[C@@H](Nc1nc(-n2ccnc2)ns1)C(=O)NCCc1ccc2c(c1)OCO2 [Example 122, (R)—N-(2-Benzo[1,3]dioxol-5-yl-ethyl)-2-(3-imidazol-1-yl-[1,2,4]thiadiazol-5-ylamino)-3-methyl-butyramide]
> 50000	Cc1cc(CNC(=O)C2CCCN2Cc2ccco2)nc(-n2ccnc2)n1 (stereo not drawn) [Example 118, 1-Furan-2-ylmethyl-pyrrolidine-2-carboxylic acid (2-imidazol-1-yl-6-methyl-pyrimidin-4-ylmethyl)-amide]
< 1000	CN(CCc1ccc2c(c1)OCO2)CCN(C)c1nc(-n2ccnc2)ns1 [Example 128, N-(2-Benzo[1,3]dioxol-5-yl-ethyl)-N′-(3-imidazol-1-yl-[1,2,4]thiadiazol-5-yl)-N,N′-dimethyl-ethane-1,2-diamine]
